Experimental data taken from US20130078224A1, “INDUCTION/MONITORING OF ARTERIOGENESIS USING SDF1 AND PDGFB OR INHIBITION OF PHD2” (LIFE SCIENCES RESEARCH PARTNERS VZW, priority 2010, published 2013).

Experiments:
NF-κB = test: NF-κB-responsive firefly luciferase reporter assay in bone marrow-derived macrophages; type: cell-based, mice
Method: (§1) Transduction and Transfection of Bone Marrow-Derived Macrophages and Lung Endothelial Cells: To express an inducible NF-κB responsive firefly luciferase reporter, commercially available lentiviral vector particles (LV) were used (Cignal Lenti NF-κB Reporter; SABiosciences). 2.5×10^5 bone marrow-derived macrophages and 10^5 primary lung endothelial cells (isolated as previously described (Mazzone et al., 2009, see above)) were seeded in a 24-well plate in DMEM 10% FBS or M199 20% FBS for eight hours. Cells were transduced with 10^8 TU/ml. Eight hours after transduction, the medium wash was replaced. After 48 hours, cells were stimulated with TNFα (20 ng/mL) for eight hours and the same amount of protein extract was read in a luminometer. For PHD3 silencing, siRNA oligonucleotides were designed using the Invitrogen online siRNA design tool (world wide web at maidesigner.invitrogen.com). The following sequences (sense strands) and target positions were used: PHD3 siRNA: 5′-[…]-3′ (SEQ ID NO:1); scramble siRNA:5′-[…]-3′ (SEQ ID NO:2). In brief, one day after the transduction of macrophages with LV, cells were transfected using Lipofectamine 2000 (Invitrogen) according to the manufacturer's instructions. Preparation of the oligonucleotide-Lipofectamine 2000 complexes was done as followed: 25 pmol siRNA oligonucleotide (stock: 20 μM) was diluted in 50 μl Opti-MEM I reduced serum medium. Lipofectamine 2000 (1.5 μl) was diluted in 50 μl Opti-MEM I reduced serum medium and incubated for five minutes at room temperature. siRNA oligonucleotides were gently mixed with Lipofectamine 2000 and allowed to incubate at room temperature for twenty minutes to form complexes. Just before transfection, the cell culture medium was removed and cells were rinsed twice with serum-free Opti-MEM I medium. The Lipofectamine 2000-siRNA oligonucleotide complexes were added to each well in 400 μl of serum-free Opti-MEM medium for five hours. Afterwards, cells were incubated in complete medium for 48 hours at 37° C. in a CO2 incubator and assayed for gene knockdown (qRT-PCR) and luciferase activity. To assess if the increased NFkB activity observed in PHD2^+/− macrophages was dependent on the hydroxylase activity of PHD2, 48 hours before transduction, 4×10^6 bone marrow-derived macrophages were resuspended in 240 μl of Opti-MEM and were electroporated (250 V, 950 uF, ∝ Ω) with 7 μg of plasmids expressing a wild-type PHD2 (PHD2^wt) or a PHD2 containing a mutation at the catalytic site (PHD2^H313A).

PHD3 = PHD3 gene knockdown (qRT-PCR) in macrophages; type: cell-based, mice
Method: as §1, with “To assess if the increased NFkB activity observed in PHD2^+/− macrophages was dependent on the hydroxylase activity of PHD2, 48 hours before transduction, 4×10^6 bone marrow-derived macrophages were resuspended in 240 μl of Opti-MEM and were electroporated (250 V, 950 uF, ∝ Ω) with 7 μg of plasmids expressing a wild-type PHD2 (PHD2^wt) or a PHD2 containing a mutation at the catalytic site (PHD2^H313A).” left out

PHD2 = PHD2 expression (qPCR) in bone marrow-derived monocyte/macrophage cultures upon cytokine stimulation; type: cell-based, mice; settings: for PHD2 transcripts: WT cultures, any of the concentrations tested (50 and 250 ng/mL)
Method: Quantitative PCR Analysis: In order to investigate gene expression in pMØ, quantitative RT-PCR (qRT-PCR) was performed. After preparing pMØ, the cells were cultured in normoxic condition for twelve hours, and the RNA was extracted. To analyze the gene profile of adductor, gastrocnemius, and soleus muscle, tissues were collected at baseline or 24 hours/72 hours post-ischemia and RNA was extracted. Macrophages and ECs were freshly sorted from dissected adductors as described below and RNA was extracted. Quantitative RT-PCR was perfouned with commercially available or homemade primers and probes for the studied genes. The assay ID (Applied Biosystems, Foster City, Calif.) or the sequence of primers and probes (when homemade) are listed in Table 5. RNA levels of Tie-2, SDF1 and PDGFB after inhibition of NF-κB pathway were measured by qRT-PCR on pMØ exposed for twelve hours to 500 nM 6-amino-4-(4-phenoxyphenylethylamino)quinazoline. […] After 24 hours, cells were harvested for RNA extraction and cDNA preparation.

[1] = system: hCASMC (Human coronary artery smooth muscle cells); test: SMC migration (Transwell) toward PHD2+/- macrophages; type: cell-based; settings: AMD3100 1 μg/ml, imatinib 2.5 μg/ml, alone or combined
Method: (§2) Cell Migration and Viability Assays: Migration and proliferation of SMCs and ECs were assessed by using 8 μm-pore Transwell peimeable plate for migration assays and 0.4 μm-pore Transwell permeable plate for proliferation assays (Corning Life Science). To determine cell migration toward the factors secreted by pMØ, pMØ were cultured in the lower chamber for twelve hours in RPMI 1% FBS or in M-199 1% FBS (migration assay), or 48 hours in DMEM-F12 1% FBS or in M-199 1% FBS (proliferation assay). For migration assays, hCASMC (Human coronary artery smooth muscle cells; from Lonza) and HUVEC (Human umbilical vein endothelial cells; from Lonza) were starved for twelve hours in their own medium at 1% FBS and, therefore, seeded in the upper chamber (5×10^3 cells in 200 μl of medium 1% FBS), with or without AMD3100 (1 μg/ml, Sigma-Aldrich, Dorset, U.K) and imatinib (2.5 μg/ml, Novartis). SMCs and HUVECs were incubated for two days or 24 hours, respectively, and migrated cells were fixed with 4% PFA, stained with 0.25% crystal violet/50% methanol and counted under the microscope. VEGF (100 ng/mL, R&D), PDGFB (100 ng/mL, R&D) or SDF 1 (100 ng/mL, R&D) were used as positive controls. […] The cell proliferative ability was then analyzed using WST-1 Cell Proliferation Assay (Roche Applied Biosciences) according to the manufacturer instructions after 24 hours of coculture with the pMØ. […]

[2] = system: RAOSMC (Rat Aortic Smooth Muscle Cells); test: SMC growth assay (WST-1) in coculture with PHD2+/- macrophages; type: cell-based; settings: AMD3100, imatinib, alone or combined
Method: as §2

[3] = system: secondary and tertiary collateral arterioles; test: Collateral vessel formation in bone marrow transplanted mice treated with AMD3100/imatinib (gelatin bismuth angiography); type: in vivo; settings: for increased formation of second generation collateral branches / third generation collaterals: HE→WT mice, daily AMD3100 5 mg/kg or imatinib 50 mg/kg alone; for number of collateral branch arteries: WT→WT mice, alone or in combination
Method: Mouse Model of Hindlimb Ischemia: To induce hind limb ischemia, unilateral or bilateral ligations of the femoral artery and vein (proximal to the popliteal artery) and the cutaneous vessels branching from the caudal femoral artery side branch were performed without damaging the nervus femoralis (Luttun et al., Nat. Med. 8:831-840, 2002). By using this procedure, collateral flow to adductor muscles is preserved via arterioles branching from the femoral artery, therefore, 50% up to 60% of perfusion is preserved by this method. Two superficial preexisting collateral arterioles connecting the femoral and saphenous arteries were used for analysis. Functional perfusion measurements of the collateral region were performed using a Lisca PIM II camera (Gambro). Gelatin bismuth-based angiography was perfottned as described (Carmeliet et al., Nat. Med. 7:575-583, 2001) and analyzed by photoangiographs (Nikon D1 digital camera). Collateral side branches were categorized as follows: second-generation collateral arterioles directly branched off from the main collateral, whereas third-generation collateral arterioles were orientated perpendicularly to the second-generation branches. The number of secondary and tertiary collateral arterioles was counted. After perfusion-fixation, the muscle tissue between the two superficial collateral arterioles (adductor) was post-fixed in 2% paraformaldehyde (PFA) and paraffin-embedded, and were morphometrically analyzed. An endurance treadmill-running test was perfatmed at 12, 24, 48, and 72 hours after bilateral femoral artery ligation.
(§3) Bone Marrow (BM) Transplantation and Hematological Analysis: Balb/c WT and PHD2^+/− recipient mice were irradiated with 7.5 Gy. Subsequently, 5×10^6 bone marrow cells from green fluorescent protein^+ (GFP^+) WT or GFP^+ PHD2^+/− mice were injected intravenously via the tail vein. After one week, saline or AMD3100 (5 mg/kg) was administered intravenously and saline or imatinib ([…]) was administered by oral gavage for four weeks. Femoral artery ligation, treadmill running test and bismuth angiography were performed at six weeks after bone marrow reconstitution. Red and white blood cell count was determined using a hemocytometer on peripheral blood collected in heparin with capillary pipettes by retro-orbital bleeding. To assess the effect of acute deletion of macrophage-borne PHD2 on arteriogenesis, PHD2^Rosa26CreERT;lox/wt bone marrows were transplanted into lethally irradiated WT recipient mice. After five weeks, transplanted mice were injected i.p. with tamoxifen (1 mg/mouse; Sigma) or vehicle for five days. TEM quantification and femoral artery ligation were performed ten days after tamoxifen treatment as explained above. The bone marrow of PHD2^WT;Tie2:GFP or PHD2^HE;Tie2:GFP mice was transplanted in lethally irradiated WT mice. After five weeks, mice were injected systemically (5×10^11 vp) and locally (5×10^9 vp in two points of the adductor) with an AAV9 encoding the mouse extracellular domain of Tie2 fused to a flag tag (AAV9:sTie2). AAV9 encoding the human serum albumin was used as control. One week after injection of the viral vector, mice were subjected to femoral artery ligation. Blood and adductor samples were harvested at baseline and 72 hours post-ischemia and used to sort CD115^+GFP^+ circulating monocytes and F4/80^+GFP^+ macrophages.

[4] = system: collateral branches, circulating TEMs; test: Acute PHD2 deletion by tamoxifen in HERosa26CreERT→WT mice: TEMs, collaterals, ischemic damage; type: in vivo
Method: as §3

[5] = tamoxifen 1 mg/mouse for five days

Molecule: 5′-GCCGGCUGGGCAAAUACUAUGUCA-3′ (SEQ ID NO:1) [PHD3 siRNA]
- induction of NF-κB activity vs scramble control (NF-κB; PHD2LysCre;lox/lox macrophages): 70%
- induction of NF-κB activity vs scramble control (NF-κB; PHD2LysCre;lox/wt macrophages): 14%
- induction of NF-κB activity vs scramble control (NF-κB; PHD2LysCre;wt/wt macrophages): 22%
- knockdown of PHD3 vs scramble control (PHD3; PHD2LysCre;lox/lox macrophages): 37±0.01%
- knockdown of PHD3 vs scramble control (PHD3; PHD2LysCre;lox/wt macrophages): 60±0.04%
- knockdown of PHD3 vs scramble control (PHD3; PHD2LysCre;wt/wt macrophages): 63±0.03%

Molecule: SDF1: Stromal cell-derived factor 1, alpha chemokine
- PHD2 transcripts (PHD2): did not affect

Molecule: c1cc(CN2CCCNCCNCCCNCC2)ccc1CN1CCCNCCNCCCNCC1 [AMD3100]
- migration of SMCs toward PHD2+/- macrophages [1]: not effective
- increased SMC growth by PHD2+/- macrophages [2]: abrogated
- increased formation of second generation collateral branches [3]: only partially prevented
- third generation collaterals [3]: affected
- number of collateral branch arteries [3]: not affected

Molecule: MCP1: monocyte chemotactic protein-1, ischemia-induced cytokine
- PHD2 transcripts (PHD2): did not affect

Molecule: Cc1ccc(NC(=O)c2ccc(CN3CCN(C)CC3)cc2)cc1Nc1nccc(-c2cccnc2)n1 [imatinib]
- migration of SMCs toward PHD2+/- macrophages [1]: not effective
- increased SMC growth by PHD2+/- macrophages [2]: abrogated
- increased formation of second generation collateral branches [3]: only partially prevented
- third generation collaterals [3]: affected
- number of collateral branch arteries [3]: not affected

Molecule: VEGF
- PHD2 transcripts (PHD2): did not affect

Molecule: CC/C(=C(\c1ccccc1)c1ccc(OCCN(C)C)cc1)c1ccccc1 [tamoxifen]
- ischemic damage ([4]; 72 hours after femoral artery ligation): greatly reduced
- circulating TEMs ([4]; 14 days after tamoxifen 1 mg/mouse for five days, vs vehicle): almost three-fold increased
- secondary collateral branches, abundance vs vehicle [4, 5]: 1.6 times
- tertiary collateral branches, abundance vs vehicle [4, 5]: 2.3 times

B1: angiopoietin-2: Tie2 ligand cytokine (Prospec) (protein, UniProt O15123 19-496, looked up)
Angiopoietin-2: YNNFRKSMDSIGKKQYQVQHGSCSYTFLLPEMDNCRSSSSPYVSNAVQRDAPLEYDDSVQRLQVLENIMENNTQWLMKLENYIQDNMKKEMVEIQQNAVQNQTAVMIEIGTNLLNQTAEQTRKLTDVEAQVLNQTTRLELQLLEHSLSTNKLEKQILDQTSEINKLQDKNSFLEKKVLAMEDKHIIQLQSIKEEKDQLQVLVSKQNSIIEELEKKIVTATVNNSVLQKQQHDLMETVNNLLTMMSTSNSAKDPTVAKEEQISFRDCAEVFKSGHTTNGIYTLTFPNSTEEIKAYCDMEAGGGGWTIIQRREDGSVDFQRTWKEYKVGFGNPSGEYWLGNEFVSQLTNQQRYVLKIHLKDWEGNEAYSLYEHFYLSSEELNYRIHLKGLTGTAGKISSISQPGNDFSTKDGDNDKCICKCSQMLTGGWWFDACGPSNLNGMYYPQRQNTNKFNGIKWYYWKGSGYSLKATTMMIRPADF
- reduction of PHD2 levels (PHD2; WT monocytes/macrophages, only at 50 ng/ml): 15%

B2: PlGF: ischemia-induced cytokine (protein, UniProt P49763 19-221, looked up)
Placenta growth factor: LPAVPPQQWALSAGNGSSEVEVVPFQEVWGRSYCRALERLVDVVSEYPSEVEHMFSPSCVSLLRCTGCCGDENLHCVPVETANVTMQLLKIRSGDRPSYVELTFSQHVRCECRHSPGRQSPDMPGDFRADAPSFLPPRRSLPMLFRMEWGCALTGSQSAVWPSSPVPEEIPRMHPGRNGKKQQRKPLREKMKPERCGDAVPRR
- PHD2 transcripts (PHD2): did not affect

B3: PDGFB: platelet-derived growth factor beta protein (protein, UniProt P01127 82-190, looked up)
Platelet-derived growth …: SLGSLTIAEPAMIAECKTRTEVFEISRRLIDRTNANFLVWPPCVEVQRCSGCCNNRNVQCRPTQVQLRPVQVRKIEIVRKKPIFKKATVTLEDHLACKCETVAAARPVT
- PHD2 transcripts (PHD2): did not affect
